Patent US20240132475A1, “SUBSTITUTED PYRAZOLYL COMPOUNDS AS MALT-1 INHIBITORS” (AURIGENE ONCOLOGY LIMITED, priority 2021, published 2024)

Target: T1, MALT-1 (Isoform 1) (Homo sapiens, UniProt Q9UDY8)
T1 construct: using recombinant MALT-1 (Isoform 1, aa-840) generated in house; made in house
T1 sequence (Q9UDY8 1-824): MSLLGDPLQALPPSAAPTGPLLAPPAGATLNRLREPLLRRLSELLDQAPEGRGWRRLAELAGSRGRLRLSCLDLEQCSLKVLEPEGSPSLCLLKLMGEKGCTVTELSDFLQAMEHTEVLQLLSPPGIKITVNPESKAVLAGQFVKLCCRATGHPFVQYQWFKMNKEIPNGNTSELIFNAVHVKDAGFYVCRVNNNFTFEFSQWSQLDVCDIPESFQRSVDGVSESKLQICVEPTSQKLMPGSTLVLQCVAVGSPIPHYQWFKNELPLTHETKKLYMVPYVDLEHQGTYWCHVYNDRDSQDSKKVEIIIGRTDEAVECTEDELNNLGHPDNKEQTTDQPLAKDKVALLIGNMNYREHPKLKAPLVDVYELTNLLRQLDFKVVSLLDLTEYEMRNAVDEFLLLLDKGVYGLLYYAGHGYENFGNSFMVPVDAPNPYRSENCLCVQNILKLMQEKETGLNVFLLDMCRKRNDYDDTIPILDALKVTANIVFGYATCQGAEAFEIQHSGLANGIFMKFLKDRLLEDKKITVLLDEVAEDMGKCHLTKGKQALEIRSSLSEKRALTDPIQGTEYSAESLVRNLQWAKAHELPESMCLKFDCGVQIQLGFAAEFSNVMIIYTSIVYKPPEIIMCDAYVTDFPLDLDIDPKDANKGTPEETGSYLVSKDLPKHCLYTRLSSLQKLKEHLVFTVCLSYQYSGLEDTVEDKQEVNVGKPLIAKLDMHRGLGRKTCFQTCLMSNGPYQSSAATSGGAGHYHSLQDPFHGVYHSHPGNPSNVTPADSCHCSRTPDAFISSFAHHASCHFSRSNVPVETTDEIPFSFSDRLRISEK
Experiment: MALT-1 (Isoform 1) enzyme fluorescent biochemical assay
Details: for IC50: dose-response, sigmoidal curve fit, reported as groups A, B, C; for inhibition at 1 µM: read-out: Percent Inhibition (1 μM); for inhibition at 10 µM: test compound 10 μM (stated in the cell), read-out: Percent Inhibition (10 μM)
Experimental: The potency of compounds to inhibit MALT-1 (Isoform 1) enzyme was tested in a Fluorescent assay using recombinant MALT-1 (Isoform 1, aa-840) generated in house. The assay buffer was 50 mM HEPES (pH 7.5), 100 mM NaCl, 10 mM DTT, 1 mM EDTA, 0.9 M sodium citrate, 0.01% CHAPS. 1.5 nM of MALT-1 enzyme was incubated with test compounds ([…]) (1% DMSO) in the presence of buffer for 30 minutes at 30° C. The protease reaction was initiated by adding […] of AC-LRSR-MAC (Peptide International, USA) substrate and incubated for 240 min. After 240 min incubation, fluorescence emission of the samples at 460 nm was measured at an excitation of 355 nm. The percent inhibition was calculated using the following formula: […]. IC50 values were determined by fitting the dose-response data to sigmoidal curve fitting equation using Graph pad prism software V8.
ND represents Not Determined.

[1] = test compound 1 μM, recombinant MALT-1 1.5 nM

| SMILES | IC50 [nM] | inhibition at 1 µM [1] [%] | Percent Inhibition (1 μM) [1] [%] | inhibition at 10 µM (recombinant MALT-1 1.5 nM) [%] |
| --- | --- | --- | --- | --- |
| N#Cc1cc(NC(=O)c2cnn(Cc3ccc(F)c(Cl)c3)c2C(F)(F)F)cnc1-n1nccn1 [Compound 21, 1-(3-chloro-4-fluorobenzy1)-N-(5-cyano-6-(2H-1,2,3-triazol-2-yl)pyridin-3-yl)-5-(trifluoromethyl)-1H-pyrazole-4-carboxamide] | > 1000 | 23 | – | – |
| O=C(Nc1ccnc(C(F)(F)F)c1)c1cnn(Cc2cccc(F)c2)c1C(F)(F)F [Compound 19, 1-(3-fluorobenzyl)-5-(trifluoromethyl)-N-(2-(trifluoromethyl)pyridin-4-yl)-1H-pyrazole-4-carboxamide] | > 1000 | 22 | – | – |
| N#Cc1cc(NC(=O)c2cnn(Cc3cccnc3)c2C(F)(F)F)cnc1-n1nccn1 [Compound 18, N-(5-cyano-6-(2H-1,2,3-triazol-2-yl)pyridin-3-yl)-1-(pyridin-3-ylmethyl)-5-(trifluoromethyl)-1H-pyrazole-4-carboxamide] | > 1000 | 47 | – | – |
| CCC(c1cccc(F)c1)n1ncc(C(=O)Nc2cnc(-n3nccn3)c(C#N)c2)c1C(F)(F)F (stereo not shown) [Compound 6, N-(5-cyano-6-(2H-1,2,3-triazol-2-yl)pyridin-3-y1)-1-(1-(3-fluorophenyl)propyl)-5-(trifluoromethyl)-1H-pyrazole-4-carboxamide] | 251 to 1000 | 81 | – | – |
| CC(c1ccccc1)n1ncc(C(=O)Nc2cnc(-n3nccn3)c(C#N)c2)c1C(F)(F)F (single isomer, unassigned) [Compound 2b] | 251 to 1000 | – | 57 | – |
| N#Cc1cccc(Cn2ncc(C(=O)Nc3cnc(-n4nccn4)c(C#N)c3)c2C(F)(F)F)c1 [Compound 12, N-(5-cyano-6-(2H-1,2,3-triazol-2-yl)pyridin-3-y1)-1-(3-cyanobenzyl)-5-(trifluoromethyl)-1H-pyrazole-4-carboxamide] | < 250 | 98 | – | – |
| COc1cccc(Cn2ncc(C(=O)Nc3cnc(-n4nccn4)c(C#N)c3)c2C(F)(F)F)c1 [Compound 17, N-(5-cyano-6-(2H-1,2,3-triazol-2-yl)pyridin-3-y1)-1-(3-methoxybenzyl)-5-(trifluoromethyl)-1H-pyrazole-4-carboxamide] | – | – | – | 48 |
| CC(c1ccccc1)n1ncc(C(=O)Nc2cnc(-n3nccn3)c(C#N)c2)c1C(F)(F)F (racemic) [Compound 2, N-(5-cyano-6-(2H-1,2,3-triazol-2-yl)pyridin-3-yl)-1-(1-phenylethyl)-5-(trifluoromethyl)-1H-pyrazole-4-carboxamide] | < 250 | 96 | – | – |
| N#Cc1cc(NC(=O)c2cnn(Cc3cccc(F)c3)c2C2CC2)cnc1-n1nccn1 [Compound 23, N-(5-cyano-6-(2H-1,2,3-triazol-2-yl)pyridin-3-yl)-5-cyclopropyl-1-(3-fluorobenzyl)-1H-pyrazole-4-carboxamide] | > 1000 | 45 | – | – |
| N#Cc1cc(NC(=O)c2cnn(Cc3cccc(C(F)(F)F)c3)c2C(F)(F)F)cnc1-n1nccn1 [Compound 14, N-(5-cyano-6-(2H-1,2,3-triazol-2-yl)pyridin-3-y1)-5-(trifluoromethyl)-1-(3-(trifluoromethyl)benzyl)-1H-pyrazole-4-carboxamide] | > 1000 | 67 | – | – |
| N#Cc1cc(NC(=O)c2cnn(Cc3cccc(Cl)c3)c2C(F)(F)F)cnc1-n1nccn1 [Compound 8, 1-(3-chlorobenzyl)-N-(5-cyano-6-(2H-1,2,3-triazol-2-y1)pyridin-3-yl)-5-(trifluoromethyl)-1H-pyrazole-4-carboxamide] | < 250 | 87 | – | – |
| CC(c1cccc(F)c1)n1ncc(C(=O)Nc2cnc(-n3nccn3)c(Cl)c2)c1C(F)(F)F (single isomer, unassigned) [Compound 4b] | < 250 | 94 | – | – |
| CC(c1cccc(F)c1)n1ncc(C(=O)Nc2cnc(-n3nccn3)c(C#N)c2)c1C(F)(F)F (racemic) [Compound 3, N-(5-cyano-6-(2H-1,2,3-triazol-2-yl)pyridin-3-yl)-1-(1-(3-fluorophenyl)ethyl)-5-(trifluoromethyl)-1H-pyrazole-4-carboxamide] | < 250 | 83 | – | – |
| O=C(Nc1cnc(-n2nccn2)c(Cl)c1)c1cnn(Cc2cccc(F)c2)c1C(F)(F)F [Compound 25, N-(5-chloro-6-(2H-1,2,3-triazol-2-yl)pyridin-3-yl)-1-(3-fluorobenzyl)-5-(trifluoromethyl)-1H-pyrazole-4-carboxamide] | < 250 | 100 | – | – |

Next, values leading:

| IC50 [nM] | inhibition at 1 µM [1] [%] | Percent Inhibition (1 μM) [1] [%] | inhibition at 10 µM (recombinant MALT-1 1.5 nM) [%] | SMILES |
| --- | --- | --- | --- | --- |
| 251 to 1000 | 77 | – | – | N#Cc1cc(NC(=O)c2cnn(Cc3cccc(F)c3Cl)c2C(F)(F)F)cnc1-c1ccoc1 [Compound 54, 1-(2-chloro-3-fluorobenzyl)-N-(5-cyano-6-(furan-3-yl)pyridin-3-y1)-5-(trifluoromethyl)-1H-pyrazole-4-carboxamide] |
| < 250 | 99 | – | – | O=C(Nc1cnc(-n2nccn2)c(Cl)c1)c1cnn(Cc2cccc(F)c2Cl)c1C(F)(F)F [Compound 34, 1-(2-chloro-3-fluorobenzy1)-N-(5-chloro-6-(2H-1,2,3-triazol-2-yl)pyridin-3-yl)-5-(trifluoromethyl)-1H-pyrazole-4-carboxamide] |
| < 250 | 100 | – | – | N#Cc1cc(NC(=O)c2cnn(Cc3cccc(F)c3F)c2C(F)(F)F)cnc1-n1nccn1 [Compound 27, N-(5-cyano-6-(2H-1,2,3-triazol-2-yl)pyridin-3-y1)-1-(2,3-difluorobenzyl)-5-(trifluoromethyl)-1H-pyrazole-4-carboxamide] |
| < 250 | 100 | – | – | N#Cc1cc(NC(=O)c2cnn(Cc3cccc(F)c3Br)c2C(F)(F)F)cnc1-n1nccn1 [Compound 38, 1-(2-bromo-3-fluorobenzy1)-N-(5-cyano-6-(2H-1,2,3-triazol-2-yl)pyridin-3-yl)-5-(trifluoromethyl)-1H-pyrazole-4-carboxamide] |
| > 1000 | 32 | – | – | O=C(Nc1cc(C(F)(F)F)ccn1)c1cnn(Cc2cccc(F)c2Cl)c1C(F)(F)F [Compound 46, 1-(2-chloro-3-fluorobenzyl)-5-(trifluoromethyl)-N-(4-(trifluoromethyl)pyridin-2-yl)-1H-pyrazole-4-carboxamide] |
| 251 to 1000 | 75 | – | – | O=C(Nc1ccnc(C(F)(F)F)c1)c1cnn(Cc2cccc(F)c2Cl)c1C(F)(F)F [Compound 40, 1-(2-chloro-3-fluorobenzyl)-5-(trifluoromethyl)-N-(2-(trifluoromethyl)pyridin-4-y1)-1H-pyrazole-4-carboxamide] |
| < 250 | 99 | – | – | N#Cc1cc(NC(=O)c2cnn(Cc3cccc(F)c3C(F)(F)F)c2C(F)(F)F)cnc1-n1nccn1 [Compound 33, N-(5-cyano-6-(2H-1,2,3-triazol-2-yl)pyridin-3-y1)-1-(3-fluoro-2-(trifluoromethyl)benzy1)-5-(trifluoromethyl)-1H-pyrazole-4-carboxamide] |
| < 250 | 99 | – | – | Cc1c(F)cccc1Cn1ncc(C(=O)Nc2cnc(-n3nccn3)c(Cl)c2)c1C(F)(F)F [Compound 32, N-(5-chloro-6-(2H-1,2,3-triazol-2-y1)pyridin-3-y1)-1-(3-fluoro-2-methylbenzyl)-5-(trifluoromethyl)-1H-pyrazole-4-carboxamide] |
| 251 to 1000 | 60 | – | – | O=C(Nc1cnnc(C(F)(F)F)c1)c1cnn(Cc2cccc(F)c2Cl)c1C(F)(F)F [Compound 53, 1-(2-chloro-3-fluorobenzyl)-5-(trifluoromethyl)-N-(6-(trifluoromethyl)pyridazin-4-yl)-1H-pyrazole-4-carboxamide] |
| – | – | – | 33 | O=C(Nc1ccnc(C(O)C(F)(F)F)c1)c1cnn(Cc2cccc(F)c2Cl)c1C(F)(F)F (stereo not shown) [Compound 47, 1-(2-chloro-3-fluorobenzyl)-N-(2-(2,2,2-trifluoro-1-hydroxyethyl)pyridin-4-y1)-5-(trifluoromethyl)-1H-pyrazole-4-carboxamide] |
